Measured values published in publication PMC117120 (BMC Biochemistry, 2002).
Numbering of substitutions follows the chain as printed. “And” between values parts separate entries of the source, which are not always exact repeats. Equal entries are not always repeated.

Columns and labels:
[1] = target: T1, H145A mutant mouse 5-HT3ASR (Mus musculus, UniProt P23979, H146A); experiment: [^3H]granisetron saturation binding, H145A receptor; conditions: ± SE
T1 sequence (P23979 24-483 isoform P23979-2 H146A): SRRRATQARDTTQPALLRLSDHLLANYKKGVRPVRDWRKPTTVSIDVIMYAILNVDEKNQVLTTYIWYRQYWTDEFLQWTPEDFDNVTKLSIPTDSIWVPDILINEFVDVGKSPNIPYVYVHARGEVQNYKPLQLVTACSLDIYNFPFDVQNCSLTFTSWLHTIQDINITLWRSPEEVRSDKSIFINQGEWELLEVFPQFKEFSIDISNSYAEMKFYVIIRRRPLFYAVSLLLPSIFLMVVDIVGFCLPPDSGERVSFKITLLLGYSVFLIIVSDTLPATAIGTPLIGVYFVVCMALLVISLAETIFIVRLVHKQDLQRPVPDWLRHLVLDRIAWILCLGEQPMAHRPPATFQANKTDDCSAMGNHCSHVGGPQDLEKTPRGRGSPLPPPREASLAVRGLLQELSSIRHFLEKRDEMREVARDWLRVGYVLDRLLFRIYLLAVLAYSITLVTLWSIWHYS

wildtype mouse 5-HT3ASR = target: T2, wildtype mouse 5-HT3ASR (Mus musculus, UniProt P23979); experiment: [^3H]granisetron saturation binding, wildtype receptor
T2 sequence (P23979 24-483 isoform P23979-2 limits assumed): T1 sequence (P23979 24-483 isoform P23979-2 H146A) with A123H

[2] = target: T3, K153A mutant mouse 5-HT3ASR (Mus musculus, UniProt P23979, K154A); experiment: [^3H]granisetron saturation binding, K153A receptor; conditions: ± SE
T3 sequence (P23979 24-483 isoform P23979-2 K154A): T1 sequence (P23979 24-483 isoform P23979-2 H146A) with A123H, K131A

Bmax [1]: 0.81 ± .07 pmol/mg protein
Hill coefficient (n) [1]: 1.38 ± 0.17
Bmax (+ protease inhibitor) (wildtype mouse 5-HT3ASR; membranes prepared in the presence of protease inhibitor cocktail): 3.1 ± 0.11 pmoles/mg protein
Hill coefficient (n) (wildtype mouse 5-HT3ASR; ± SE): 1 ± 0.12
Hill coefficient (n) [2]: 1.51 ± 0.17
Compound: CN1C2CCCC1CC(NC(=O)c1nn(C)c3ccccc13)C2 (stereo not shown) [[^3H]granisetron]
Bmax (wildtype mouse 5-HT3ASR; absence of protease inhibitor, ± SE): 3.2 ± 0.13 pmol/mg protein and 3.2 ± .13 pmol/mg protein
Bmax [2]: 0.30 pmol/mg protein and 0.30 ± .08 pmol/mg protein
